Test results taken from ChEMBL document CHEMBL5528074 (J Med Chem, 2024).
Activity calls are given as the source filed them. The rule behind the calls is not given here.

Key:
[1] = target: T1, G-protein coupled receptor 183 (Homo sapiens, UniProt P32249); experiment: Antagonist activity at GPR183 (unknown origin) incubated for 30 mins by calcium mobilization assay; assay type: functional
[2] = target: T1, G-protein coupled receptor 183
Description: Antagonist activity at GPR183 (unknown origin) transfected in HEK293 cells incubated for 30 mins by Glosensor cAMP assay

[3] = Metabolic stability in mouse liver microsomes assessed as intrinsic clearance; assay type: ADME, Microsome; conditions: read-out: CLH
[4] = test system: Mus musculus; experiment: Antiinflammatory activity against DSS-induced colitis C57BL/6 mouse model assessed as reduction in disease activity index (DAI) score at 3 mg/kg, po measured for 8 days; assay type: functional, organism-based; conditions: time 8.0 day
[5] = Metabolic stability in monkey liver microsomes assessed as compound remaining at 1 uM incubated for 60 mins in presence of NADPH/UDPGA by LC-MS/MS analysis; assay type: ADME, Macaca mulatta, Microsome; conditions: rhesus monkey, 1 h
[6] = Toxicity in C57BL/6 mouse assessed as effect on kidney at 3 mg/kg, po by H and E staining based analysis; assay type: organism-based; conditions: in vivo
[7] = test system: U-937; experiment: Antimigratory activity against human U-937 cells assessed as inhibition of 7alpha,25-dihydroxycholesterol induced cell migration by CCK-8 method; assay type: functional, cell-based
[8] = Metabolic stability in monkey liver microsomes assessed as half life at 10 uM incubated for 60 mins in presence of NADPH/UDPGA by LC-MS/MS analysis; assay type: ADME, Macaca mulatta, Microsome; conditions: rhesus monkey, 1 h
[9] = test system: Mus musculus; experiment: Antiinflammatory activity against DSS-induced colitis C57BL/6 mouse model assessed as amelioration of inflammatory response at 3 to 10 mg/kg, po by H and E staining based analysis; assay type: functional, organism-based; conditions: dose 3-10 mg/kg
[10] = target: T1, G-protein coupled receptor 183; experiment: Antagonist activity at GPR183 (unknown origin) transfected in HEK293 cells cotransfected with CRE-luciferase plasmid assessed as restoration of luciferase activity preincubated for 30 mins followed by 7alpha,25-dihydroxycholesterol induction and measured after 4 hrs by dual luciferase assay; assay type: functional, cell-based
[11] = Half life in C57BL/6 mouse at 1 mg/kg, iv measured upto 24 hrs by LC-MS/MS analysis; assay type: ADME, organism-based; conditions: in vivo
[12] = AUC infinity in C57BL/6 mouse at 1 mg/kg, iv measured upto 24 hrs by LC-MS/MS analysis; assay type: ADME, organism-based; conditions: in vivo
[13] = Toxicity in C57BL/6 mouse assessed as effect on spleen at 3 mg/kg, po by H and E staining based analysis; assay type: organism-based; conditions: in vivo
[14] = Oral bioavailability in C57BL/6 mouse at 3 mg/kg measured upto 24 hrs by LC-MS/MS analysis; assay type: ADME, organism-based; conditions: in vivo
[15] = Metabolic stability in human liver microsomes assessed as compound remaining at 1 uM incubated for 60 mins in presence of NADPH/UDPGA by LC-MS/MS analysis; assay type: ADME, Microsome; conditions: 1 h
[16] = Toxicity in C57BL/6 mouse assessed as drug tolerance at 3 mg/kg, po by H and E staining based analysis; assay type: organism-based; conditions: in vivo
[17] = Toxicity in C57BL/6 mouse assessed as effect on heart at 3 mg/kg, po by H and E staining based analysis; assay type: organism-based; conditions: in vivo
[18] = test system: Mus musculus; experiment: Antiinflammatory activity against C57BL/6 mouse assessed as mitigation of DSS induced body weight loss administered as po measured for 10 days; assay type: functional, organism-based; conditions: dose 3-10 mg/kg, time 10.0 day
[19] = Metabolic stability in rat liver microsomes assessed as compound remaining at 1 uM incubated for 60 mins in presence of NADPH/UDPGA by LC-MS/MS analysis; assay type: ADME, Microsome; conditions: read-out: Stability
[20] = Metabolic stability in dog liver microsomes assessed as compound remaining at 1 uM incubated for 60 mins in presence of NADPH/UDPGA by LC-MS/MS analysis; assay type: ADME, Canis lupus familiaris, Microsome; conditions: read-out: Stability
[21] = Metabolic stability in mouse liver microsomes assessed as compound remaining at 1 uM incubated for 60 mins in presence of NADPH/UDPGA by LC-MS/MS analysis; assay type: ADME, Microsome; conditions: 1 h
[22] = test system: Mus musculus; experiment: Antiinflammatory activity against DSS-induced colitis C57BL/6 mouse model assessed as increase in CREB phosphorylation level at 3 to 10 mg/kg, po by immunohistochemical analysis; assay type: functional, organism-based; conditions: dose 3-10 mg/kg
[23] = Metabolic stability in mouse liver microsomes assessed as half life at 10 uM incubated for 60 mins in presence of NADPH/UDPGA by LC-MS/MS analysis; assay type: ADME, Microsome; conditions: 1 h
[24] = target: T1, G-protein coupled receptor 183; experiment: Antagonist activity at GPR183 (unknown origin) transfected in HEK293 cells assessed as reversal of 7alpha,25-Dihydroxycholesterol induced cAMP reduction incubated for 30 mins by Glosensor cAMP assay; assay type: functional, cell-based
[25] = Metabolic stability in human liver microsomes assessed as half life at 10 uM incubated for 60 mins in presence of NADPH/UDPGA by LC-MS/MS analysis; assay type: ADME, Microsome; conditions: 1 h
[26] = test system: Mus musculus; experiment: Antiinflammatory activity against DSS-induced colitis C57BL/6 mouse model assessed as reduction in Tnf-alpha expression in colon at 3 to 10 mg/kg, po; assay type: functional, organism-based; conditions: dose 3-10 mg/kg
[27] = test system: Mus musculus; experiment: Antiinflammatory activity against DSS-induced colitis C57BL/6 mouse model assessed as reduction in Il1-beta expression in colon at 3 to 10 mg/kg, po; assay type: functional, organism-based; conditions: dose 3-10 mg/kg
[28] = Cmax in C57BL/6 mouse at 1 mg/kg, iv measured upto 24 hrs by LC-MS/MS analysis; assay type: ADME, organism-based; conditions: in vivo
[29] = target: T1, G-protein coupled receptor 183; experiment: Antagonist potency at GPR183 (unknown origin) transfected in HEK293 cells by schild plot analysis; assay type: cell-based; conditions: read-out: pA2 (converted)
[30] = Half life in C57BL/6 mouse at 3 mg/kg, po measured upto 24 hrs by LC-MS/MS analysis; assay type: ADME, organism-based; conditions: in vivo
[31] = Apparent volume of distribution in C57BL/6 mouse at 1 mg/kg, iv measured upto 24 hrs by LC-MS/MS analysis; assay type: ADME, organism-based; conditions: in vivo, read-out: Vz
[32] = Clearance in C57BL/6 mouse at 1 mg/kg, iv measured upto 24 hrs by LC-MS/MS analysis; assay type: ADME, organism-based; conditions: in vivo
[33] = target: T1, G-protein coupled receptor 183; experiment: Antagonist activity at GPR183 (unknown origin) transfected in HEK293 cells co-expressing LgBiT-fused SmBiT-beta-arrestin assessed as reduction in beta-arrestin recruitment using nanoluciferase as substrate incubated for 30 mins by bioluminescence based NanoBiT assay; assay type: functional, cell-based
[34] = Toxicity in C57BL/6 mouse assessed as effect on lung at 3 mg/kg, po by H and E staining based analysis; assay type: organism-based; conditions: in vivo
[35] = Metabolic stability in dog liver microsomes assessed as half life at 10 uM incubated for 60 mins in presence of NADPH/UDPGA by LC-MS/MS analysis; assay type: ADME, Canis lupus familiaris, Microsome
[36] = Toxicity in C57BL/6 mouse assessed as effect on liver at 3 mg/kg, po by H and E staining based analysis; assay type: organism-based; conditions: in vivo
[37] = test system: Mus musculus; experiment: Antiinflammatory activity against DSS-induced colitis C57BL/6 mouse model assessed as amelioration of colonic damage at 3 to 10 mg/kg, po by H and E staining based analysis; assay type: functional, organism-based; conditions: dose 3-10 mg/kg
[38] = test system: U-937; experiment: Cytotoxicity against human U-937 cells measured after 72 hrs by CCK8 method; assay type: functional, cell-based
[39] = AUC infinity in C57BL/6 mouse at 3 mg/kg, po measured upto 24 hrs by LC-MS/MS analysis; assay type: ADME, organism-based; conditions: in vivo
[40] = Cmax in C57BL/6 mouse at 3 mg/kg, po measured upto 24 hrs by LC-MS/MS analysis; assay type: ADME, organism-based; conditions: in vivo
[41] = test system: U-937; experiment: Antiinflammatory activity in human U-937 cells assessed as reversal of 7alpha,25-dihydroxycholesterol induced TNFA gene expression at 0.1 to 10 uM incubated for 24 hrs by qPCR analysis; assay type: functional, cell-based; conditions: dose 0.1-10 µM
[42] = test system: U-937; experiment: Antiinflammatory activity in human U-937 cells assessed as reversal of 7alpha,25-dihydroxycholesterol induced IL1B gene expression at 0.1 to 10 uM incubated for 24 hrs by qPCR analysis; assay type: functional, cell-based; conditions: dose 0.1-10 µM

T1 sequence (P32249 whole entry): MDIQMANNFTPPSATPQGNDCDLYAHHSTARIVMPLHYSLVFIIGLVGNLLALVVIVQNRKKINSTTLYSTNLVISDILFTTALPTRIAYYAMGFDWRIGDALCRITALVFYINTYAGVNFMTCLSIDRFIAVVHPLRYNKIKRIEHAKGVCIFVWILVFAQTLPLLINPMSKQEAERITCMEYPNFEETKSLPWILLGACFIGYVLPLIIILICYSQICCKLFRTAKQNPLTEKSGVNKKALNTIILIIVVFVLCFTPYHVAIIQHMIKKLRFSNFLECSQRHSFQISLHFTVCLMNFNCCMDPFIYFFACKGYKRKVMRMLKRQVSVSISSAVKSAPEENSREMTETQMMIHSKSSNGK

Q: For `COc1cc(C(C)NC(=O)Cc2c(C)nc(C)[nH]c2=O)cc(OC)c1OC` (configuration not stated), which IC50 [1] is on record?
A: Its IC50 is 8.31 nM.

Q: For `COc1ccc(C(=O)NC23CC(NC(=O)/C=C/c4ccc(Br)cc4)(C2)C3)cc1`, which IC50 [2] is on record?
A: The IC50 was > 10000 nM.

Q: With `Cc1cc2ccc(C(=O)N3CCN(C(=O)/C=C/c4ccc(Br)cc4)CC3)cc2[nH]1` as the molecule, how does the IC50 [2] read?
A: The IC50 was 7.61 nM.

Q: With `COc1cc2c(cc1OC)CN(C(=O)NOCc1ccccc1)CC2` as the molecule, how does the IC50 [1] read?
A: Its IC50 is 13.9 nM.

Q: Which IC50 [2] does the source give for `Nc1nc2ccc(C(=O)N3CCN(C(=O)/C=C/c4ccc(F)c(F)c4)CC3)cc2s1` here?
A: Its IC50 is 1250 nM.

Q: With `Nc1nc2ccc(C(=O)N3CCN(C(=O)/C=C/c4ccc5c(c4)CCO5)CC3)cc2s1` as the molecule, how does the IC50 [2] read?
A: Its IC50 is 386 nM.

Q: Which microsomal CLint [3] does the source give for `O=C(COc1ccc2ccccc2c1)N1CCN(C(=O)Cc2ccccc2)CC1` here?
A: The microsomal CLint was 301 µL/min/mg.

Q: Which IC50 [2] does the source give for `Nc1nc2ccc(C(=O)N3CCN(C(=O)/C=C/c4ccc(C(F)(F)F)c(Cl)c4)CC3)cc2s1` here?
A: The IC50 was 74.5 nM.

Q: Which results are given for `Nc1nc2ccc(C(=O)N3CCN(C(=O)/C=C/c4ccc(Br)cc4)CC3)cc2s1`?
A: Activity [4]: Active; Stability [5]: 91.5%; Activity [6]: Non-Toxic; IC50 [7]: 0.73 nM; t1/2 [8]: 1.36 h; Activity [9]: Active; IC50 [10]: 1.83 nM; half-life [11]: 1.61 h; AUC(0-inf) [12]: 1920 ng·h/mL; Activity [13]: Non-Toxic; bioavailability [14]: 71.1%; Stability [15]: 98.4%; Activity [16]: Non-Toxic; Activity [17]: Non-Toxic; Activity [18]: Dose-Dependent Effect; remaining at 1 h, 1 µM [19]: 95.9%; remaining at 1 h, 1 µM [20]: 96.5%; Stability [21]: 96.2%; Activity [22]: Active; t1/2 [23]: 2.35 h; IC50 [24]: 0.82 nM; t1/2 [25]: 2.52 h; Activity [26]: Active; Activity [27]: Active; Cmax [28]: 828 ng/mL; Kb [29]: 0.617 nM; half-life [30]: 2.24 h; Vd [31]: 1.21 L/kg; clearance [32]: 8.72 mL/min/kg; IC50 [33]: 0.88 nM; Activity [34]: Non-Toxic; half-life at 10 µM [35]: 6.42 h; Activity [36]: Non-Toxic; Activity [37]: Active; Activity [38]: inactive; IC50 [2]: 0.82 nM; AUC(0-inf) [39]: 4090 ng·h/mL; Cmax [40]: 817 ng/mL; Activity [41]: Active; Activity [42]: Active

Q: For `COc1ccc(NC(=O)C(F)(F)C2CCN(C(=O)/C=C/c3ccc(Br)cc3)CC2)cc1`, which IC50 [2] is on record?
A: The IC50 was 5.7 nM.

Q: Which IC50 [2] does the source give for `COc1ccc(C(=O)N2CC3CCC(C2)N3C(=O)/C=C/c2ccc(Br)cc2)cc1` here?
A: Its IC50 is > 10000 nM.

Q: For `Nc1nc2ccc(C(=O)N3CCN(C(=O)/C=C/c4ccc5c(c4)OC(F)(F)O5)CC3)cc2s1`, which IC50 [2] is on record?
A: Its IC50 is 43.6 nM.

Q: With `Nc1nc2ccc(C(=O)N3CCN(C(=O)/C=C/c4ccc(F)cc4)CC3)cc2s1` as the molecule, how does the IC50 [2] read?
A: Its IC50 is 866 nM.

Q: With `O=C(/C=C/c1ccc(Br)cc1)N1CCN(C(=O)c2ccc3nc(S)[nH]c3c2)CC1` as the molecule, how does the IC50 [2] read?
A: The IC50 was > 10000 nM.

Q: For `COc1ccc(NC(=O)CC2CCN(C(=O)/C=C/c3ccc(Br)cc3)CC2(F)F)cc1` (configuration not stated), which IC50 [2] is on record?
A: The IC50 was 54.2 nM.

Q: Which IC50 [2] does the source give for `CN(C)c1nc2ccc(C(=O)N3CCN(C(=O)/C=C/c4ccc(Br)cc4)CC3)cc2s1` here?
A: The IC50 was 54.9 nM.

Q: Which IC50 [2] does the source give for `O=C(/C=C/c1ccc(Br)cc1)N1CCN(C(=O)c2ccc3nc(C(F)(F)F)sc3c2)CC1` here?
A: The IC50 was 2.54 nM.

Q: For `O=C(Nc1nc2ccc(C(=O)N3CCN(C(=O)/C=C/c4ccc(Br)cc4)CC3)cc2s1)C1CC1`, which IC50 [2] is on record?
A: The IC50 was 76.9 nM.
